Ten molecules from PubChem BioAssay (NCI) can be followed below.

Some test systems named below: A549 NSCLC; LOX IMVI melanoma; COLO 205 colon; HOP-92 NSCLC; 786-0 renal; CAKI-1 renal; NCI-H522 lung; BT-549 breast; UACC-257 melanoma; MDA-MB-231 breast; SK-OV-3 ovarian; SF-539 CNS; SN12C renal; SNB-19 CNS; NCI-H460 lung; HS 578T breast.
What all share (assay): inhibition of tumour cell growth, NCI panel, 48 h

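Results reflect a 48-hour exposure of cells in 96-well plates to compound at five concentrations. TGI denotes the concentration required for complete inhibition of growth.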 Where a SMILES comes first, the peptide text is derived from it. The star is where a group is joined. Boc = CC(C)(C)OC(=O)*

Consider `COc1ccc(SCc2cc(OCc3ccccc3)c(OCc3ccccc3)c(OCc3ccccc3)c2)cc1`, for which the TGI came to 3.71 µM in the assay on A549 NSCLC; 2.91 µM with LOX IMVI melanoma; 8.21 µM in the assay with COLO 205 colon; 3.08 µM in the assay with HOP-92 NSCLC; 2.89 µM in the assay on 786-0 renal; 3.02 µM with CAKI-1 renal. For the same molecule, the TGI in the assay on NCI-H522 lung stood at 3.37 µM; with BT-549 breast, 4.59 µM; with UACC-257 melanoma it was 3.09 µM; with MDA-MB-231 breast, 2.7 µM; in the assay on SK-OV-3 ovarian it was 3.18 µM; with SF-539 CNS, 3.45 µM. Besides, the TGI in the assay with SN12C renal was found to be 3.49 µM; with SNB-19 CNS, 3.19 µM.

As for `COC(=O)C(Cc1c[nH]c2ccccc12)NC(=O)C(Cc1c[nH]c2ccccc12)NC(=O)C(Cc1c[nH]c2ccccc12)NC(=O)C(Cc1c[nH]c2ccccc12)NC(=O)C(Cc1c[nH]c2ccccc12)NC(=O)C(Cc1c[nH]c2ccccc12)NC(=O)C(Cc1c[nH]c2ccccc12)NC(=O)C(Cc1c[nH]c2ccccc12)NC(=O)OC(C)(C)C` (stereo unspecified) (Boc-WWWWWWWW-OMe; configuration not given here), the TGI in the assay with A549 NSCLC is above 100 µM; with LOX IMVI melanoma, above 100 µM; with NCI-H460 lung it was above 100 µM; in the assay with 786-0 renal, above 100 µM; in the assay on CAKI-1 renal, above 100 µM; with NCI-H522 lung it was 60.3 µM. Besides, the TGI in the assay on BT-549 breast, with UACC-257 melanoma, with MDA-MB-231 breast, with SN12C renal and in the assay with SNB-19 CNS was above 100 µM each time.

`CC1(C)C2C=CC1C(=O)CC2` (stereo unspecified): the TGI in the assay on A549 NSCLC, in the assay on LOX IMVI melanoma, in the assay on NCI-H460 lung, with HOP-92 NSCLC, with 786-0 renal and with CAKI-1 renal was above 100 µM throughout. Moreover, the TGI in the assay with NCI-H522 lung, in the assay with UACC-257 melanoma, in the assay with SF-539 CNS and in the assay on SNB-19 CNS was above 100 µM each time.

`Cn1cc2ccccc2c1-c1nc(F)nc(OCC(=O)[C@H]2CCC3[C@@H]4CCC5=CC(=O)CC[C@]5(C)C4[C@@H](O)C[C@@]32C)n1` (stereo partly specified): the TGI with A549 NSCLC was above 77.8 µM; with LOX IMVI melanoma, 23.3 µM; in the assay with COLO 205 colon, 40.1 µM; in the assay with NCI-H460 lung, 52.2 µM; with HOP-92 NSCLC, 36.6 µM; in the assay on 786-0 renal, 30.5 µM. The TGI with CAKI-1 renal came out at 14 µM; in the assay on NCI-H522 lung, 31.2 µM; with UACC-257 melanoma, 37.3 µM; in the assay on SK-OV-3 ovarian, 37.3 µM; with SF-539 CNS, 35.1 µM; in the assay with SN12C renal, 30.8 µM. In addition, the TGI in the assay on SNB-19 CNS was 36 µM.

Consider `CCN(CC)C(=O)C(C)n1cc(C)c(=O)[nH]c1=O` (stereo unspecified), for which the TGI in the assay on A549 NSCLC, in the assay with LOX IMVI melanoma, in the assay with COLO 205 colon, in the assay on NCI-H460 lung, in the assay with 786-0 renal and in the assay on NCI-H522 lung was above 100 µM each time. Further, the TGI in the assay with SF-539 CNS, in the assay on SN12C renal and in the assay with SNB-19 CNS was above 100 µM in each case.

For `COI1NC(=O)c2ccccc21`, the TGI with A549 NSCLC, with LOX IMVI melanoma, with COLO 205 colon, in the assay with HOP-92 NSCLC, in the assay with 786-0 renal and in the assay with NCI-H522 lung was above 100 µM each time. Further, the TGI in the assay on HS 578T breast, in the assay with MDA-MB-231 breast, in the assay on SK-OV-3 ovarian, with SN12C renal and with SNB-19 CNS was above 100 µM throughout.

On to `Cc1ccccc1S(=O)(=O)Nn1cnc2ccc(S(=O)(=O)Nc3ccc(Cl)cc3)cc2c1=O`, for which the TGI in the assay with A549 NSCLC, with LOX IMVI melanoma, in the assay with COLO 205 colon, with NCI-H460 lung, with HOP-92 NSCLC and in the assay with 786-0 renal was above 100 µM throughout. For the same molecule, the TGI in the assay on CAKI-1 renal, in the assay on NCI-H522 lung, with BT-549 breast, in the assay with UACC-257 melanoma, in the assay with HS 578T breast and in the assay on MDA-MB-231 breast was above 100 µM each time. Besides, the TGI in the assay on SK-OV-3 ovarian, in the assay with SF-539 CNS, with SN12C renal and with SNB-19 CNS was above 100 µM throughout.

With `O=C1c2ccc(O)c(O)c2C(=O)c2c(O)ccc(O)c21`, the TGI with A549 NSCLC is 50.3 µM; in the assay on LOX IMVI melanoma it was 44.3 µM; in the assay with COLO 205 colon it was 48.5 µM; in the assay with NCI-H460 lung, 49.8 µM; in the assay with HOP-92 NSCLC it was 57.7 µM; in the assay on 786-0 renal, above 100 µM. The TGI with NCI-H522 lung was 3.03 µM; with UACC-257 melanoma, 49.3 µM; in the assay on SK-OV-3 ovarian, 72.8 µM; with SF-539 CNS, 49.2 µM; in the assay with SN12C renal it was 56.7 µM; in the assay with SNB-19 CNS, 85.3 µM.

`Nc1nc2c3nc(Nc4ccccc4)sc3nc(=O)n2c2sc(Nc3ccccc3)nc12`: the TGI in the assay with A549 NSCLC, with COLO 205 colon, with HOP-92 NSCLC, in the assay with 786-0 renal, in the assay with NCI-H522 lung and with UACC-257 melanoma was above 100 µM in each case. Besides, the TGI with SK-OV-3 ovarian, in the assay with SF-539 CNS, with SN12C renal and with SNB-19 CNS was above 100 µM throughout.

On to `O=C(Nc1nc(C23CC4CC(CC(C4)C2)C3)cs1)c1cc2ccccc2oc1=O`, for which the TGI in the assay with A549 NSCLC, in the assay with LOX IMVI melanoma, in the assay on COLO 205 colon, in the assay on NCI-H460 lung, in the assay with HOP-92 NSCLC and with 786-0 renal was above 100 µM throughout. Further, the TGI with CAKI-1 renal, in the assay with NCI-H522 lung, with BT-549 breast, in the assay with UACC-257 melanoma, in the assay with HS 578T breast and with MDA-MB-231 breast was above 100 µM throughout. Further, the TGI in the assay on SF-539 CNS, in the assay on SN12C renal and with SNB-19 CNS was above 100 µM throughout.
